Measured values from patent US20230157296A1, “METHODS OF REDUCING FUSARIUM CONTAMINATION” (Taminco BV, priority 2020, published 2023).

Experiments:
Foc TR4 chlamydospores = assay: Efficacy of metam sodium on chlamydospores of Foc TR4 in vitro (colonies on PDA plates); assay type: cell-based, Fusarium oxysporum f. sp. Cubense Tropical Race 4
Procedure: Foc TR4 chlamydospores were extracted from infested soil and incubated with a dilution series of metam sodium for 5 min and 60 min at room temperature. Thereafter, the samples were diluted 10X to get reduction of the treatment and sufficient dilution of chlamydospores to avoid lack of resolution when grown on plate. Aliquots of 100 µl were plated on PDA plates in duplicate and incubated for 3 days at 25° C. Plates were photographed and scored.

Cavendish banana plants = assay: Musa field soil injection of metam sodium at 30 cm and 60 cm: banana plant growth and stage; assay type: in vivo
Procedure: (§1) Metam Sodium Application. Metam sodium 510 SL (equivalent to 42% w/w) was applied to soil at the following doses: 0 liters per hectare (L/ha), 750 L/ha, 1500 L/ha, 2250 L/ha, 3000 L/ha.
(§2) Prior to injection, soil was prepared using a rototiller to break the soil structure from 0 cm to 80 cm deep, allowing for the smooth and even injection application by an injection machine. The soil was then leveled and made uniform, and the metam sodium was applied at two depths: 30 cm and 60 cm, using injection methods. The temperature was at a minimum of 10° C. and soil humidity was between 50 and 60% holding capacity, allowing the applied product to transform from metam sodium (liquid) to MITC (gas).
(§3) The application was made using an injection machine wherein the machine lowered shanks and began moving forward such that the shanks lowered to a depth of 60 cm and injectors applied the metam sodium into the soil. When the injection at 60 cm was complete, the process was repeated for the entire field at 30 cm. The treated soil in the field was then sealed using a packer roller (which was part of the injection machinery, located at the back end of the machine), after each application.
Plant Selection and Transplantation. Cavendish banana plants were used for this investigation. In order to avoid plants already contaminated by other soil, all plants were produced in vitro using art-recognized methods. Plants were transplanted into the field 14 days after the final soil reading was taken (21 days after treatment).
Data Gathering. Data were gathered at monthly intervals beginning three months after banana plants were transplanted. A total of three data collection sessions were conducted. Data including the number of leaves, plant height, and girth size were collected.

[1] = tested on: F. oxysporum f. sp. cubense (Foc TR4); assay: Panama disease analysis of soil samples after metam sodium field injection; assay type: in vivo, Fusarium oxysporum f. sp. Cubense Tropical Race 4
Procedure: as §1, §2, §3
Soil Analysis. Soil samples were obtained at 20, 40, and 60 cm before application and every 24 hours beginning 48 hours after application, for seven days.
Plant Pathology Analysis. Soil samples used for Panama Disease and nematode analyses were aseptically isolated in culture medium and incubated for seven days at room temperature. Organisms were identified as follows: 20 grams of composite soil sample was diluted with 40 mL distilled water (dH2O); 1 drop of Tween 20 detergent was added, and the sample mixed. A 1 mL aliquot was taken from the solution and diluted with 9 mL dH2O; three further serial dilutions were made. From each dilution, 100 µL were spread on solid Komada growth medium (Sun et al., Phytopathology 68: 1672-1673, 1978). Growth could be seen 7 days after inoculation.

[2] = 750 L/ha, six months after treatment
[3] = 1500 L/ha, six months after treatment
[4] = 2250 L/ha, six months after treatment
[5] = 3000 L/ha, six months after treatment

CNC(=S)[S-].[Na+] [metam sodium, sodium N-methyldithiocarbamate]
reducing the number of surviving chlamydospores, measured as growing colonies (Foc TR4 chlamydospores; 100X dilution, prolonged incubation (60 min vs 5 min)): more effective
reduction in viability of Foc TR4 chlamydospores (Foc TR4 chlamydospores; First test, dilutions from 1000 up to 10 X 10^6-fold, 60 min): No significant reduction in viability
efficacy on chlamydospores (colonies on PDA plates) (Foc TR4 chlamydospores; Second test, 10X and 100X dilutions): (partially) effective
number of chlamydospores that survived (Foc TR4 chlamydospores; Second test, dilutions of 1000X and more): did not affect
efficacy on chlamydospores (colonies on PDA plates) (Foc TR4 chlamydospores; dilution of 10X, incubation time 5 minutes): effective
efficacy on chlamydospores (colonies on PDA plates) (Foc TR4 chlamydospores; dilution of 100X, both 5 and 60 minutes): less effective
effectiveness against Foc TR4 chlamydospores (Foc TR4 chlamydospores; in vitro conditions, dependent on high concentrations): effective
effect on average girth size of banana plant (Cavendish banana plants; 750 L/ha): ~ 1 cm
increase in average height of banana plant (Cavendish banana plants; 750 L/ha): ~ 5 cm
effect on plants reaching bagging stage (Cavendish banana plants; [2]): did not have a meaningful effect
percent of plants at either shooting or bagging stage (Cavendish banana plants; [2]): 11%
percent of plants at shooting stage (Cavendish banana plants; [2]): 9%
increase in average girth size of banana plant (Cavendish banana plants; 1500-3000 L/ha): 4-6 cm
increase in average height of banana plant (Cavendish banana plants; 1500-3000 L/ha): 20-23 cm
percent of plants at either shooting or bagging stage (Cavendish banana plants; [3]): 28%
percent of plants at shooting stage (Cavendish banana plants; [3]): 10%
percent of plants at bagging stage (Cavendish banana plants; 1500 to 3000 L/ha, six months after treatment): 11-19%
percent of plants at either shooting or bagging stage (Cavendish banana plants; [4]): 27%
percent of plants at shooting stage (Cavendish banana plants; [4]): 17%
percent of plants at either shooting or bagging stage (Cavendish banana plants; [5]): 35%
percent of plants at shooting stage (Cavendish banana plants; [5]): 22%
leaf increase (average number of leaves per banana plant) (Cavendish banana plants; regardless of dose applied): roughly 1.5 fold
Panama Disease F. oxysporum f. sp. cubense ([1]; Day 1, 20 cm, T2 750 L/ha): -
Panama Disease F. oxysporum f. sp. cubense ([1]; Day 1, 20 cm, T3 1500 L/ha): -
Panama Disease F. oxysporum f. sp. cubense ([1]; Day 1, 20 cm, T4 2250 L/ha): -
Panama Disease F. oxysporum f. sp. cubense ([1]; Day 1, 20 cm, T5 3000 L/ha): -
Panama Disease F. oxysporum f. sp. cubense ([1]; Day 1, 40 cm, T2 750 L/ha): -
Panama Disease F. oxysporum f. sp. cubense ([1]; Day 1, 40 cm, T3 1500 L/ha): -
Panama Disease F. oxysporum f. sp. cubense ([1]; Day 1, 40 cm, T4 2250 L/ha): -
Panama Disease F. oxysporum f. sp. cubense ([1]; Day 1, 40 cm, T5 3000 L/ha): -
Panama Disease F. oxysporum f. sp. cubense ([1]; Day 1, 60 cm, T2 750 L/ha): -
Panama Disease F. oxysporum f. sp. cubense ([1]; Day 1, 60 cm, T3 1500 L/ha): -
Panama Disease F. oxysporum f. sp. cubense ([1]; Day 1, 60 cm, T4 2250 L/ha): -
Panama Disease F. oxysporum f. sp. cubense ([1]; Day 1, 60 cm, T5 3000 L/ha): -
Panama Disease F. oxysporum f. sp. cubense ([1]; Day 2, 20 cm, T2 750 L/ha): -
Panama Disease F. oxysporum f. sp. cubense ([1]; Day 2, 20 cm, T3 1500 L/ha): -
Panama Disease F. oxysporum f. sp. cubense ([1]; Day 2, 20 cm, T4 2250 L/ha): -
Panama Disease F. oxysporum f. sp. cubense ([1]; Day 2, 20 cm, T5 3000 L/ha): -
Panama Disease F. oxysporum f. sp. cubense ([1]; Day 2, 40 cm, T2 750 L/ha): -
Panama Disease F. oxysporum f. sp. cubense ([1]; Day 2, 40 cm, T3 1500 L/ha): -
Panama Disease F. oxysporum f. sp. cubense ([1]; Day 2, 40 cm, T4 2250 L/ha): -
Panama Disease F. oxysporum f. sp. cubense ([1]; Day 2, 40 cm, T5 3000 L/ha): -
Panama Disease F. oxysporum f. sp. cubense ([1]; Day 2, 60 cm, T2 750 L/ha): -
Panama Disease F. oxysporum f. sp. cubense ([1]; Day 2, 60 cm, T3 1500 L/ha): -
Panama Disease F. oxysporum f. sp. cubense ([1]; Day 2, 60 cm, T4 2250 L/ha): -
Panama Disease F. oxysporum f. sp. cubense ([1]; Day 2, 60 cm, T5 3000 L/ha): -
Panama Disease F. oxysporum f. sp. cubense ([1]; Day 3, 20 cm, T2 750 L/ha): -
Panama Disease F. oxysporum f. sp. cubense ([1]; Day 3, 20 cm, T3 1500 L/ha): -
Panama Disease F. oxysporum f. sp. cubense ([1]; Day 3, 20 cm, T4 2250 L/ha): -
Panama Disease F. oxysporum f. sp. cubense ([1]; Day 3, 20 cm, T5 3000 L/ha): -
Panama Disease F. oxysporum f. sp. cubense ([1]; Day 3, 40 cm, T2 750 L/ha): -
Panama Disease F. oxysporum f. sp. cubense ([1]; Day 3, 40 cm, T3 1500 L/ha): -
Panama Disease F. oxysporum f. sp. cubense ([1]; Day 3, 40 cm, T4 2250 L/ha): -
